Laboratory results from patent US20210403567A1, “METHODS OF TREATING CERVICAL CANCER BY ADMINISTERING A PD-1 INHIBITOR” (priority 2020, published 2021).
“Also recorded” adds a separate entry of the source. Marks after values point to notes of the source that are not given here.

System: recurrent or metastatic cervical cancer
Test: Phase 3 trial, cemiplimab versus IC chemotherapy: quality of life, EORTC QLQ-C30 (GHS/QoL, functioning and symptom scales), MMRM LS mean change from baseline
Assay type: in vivo, human
Settings: for Overall difference in LS mean change from baseline (95% CI), GHS/QoL / Overall difference in LS mean change from baseline (95% CI), Physical functioning / Overall difference in LS mean change from baseline (95% CI), Role functioning / Overall difference in LS mean change from baseline (95% CI), Appetite loss / Overall difference in LS mean change from baseline (95% CI), Fatigue / Overall difference in LS mean change from baseline (95% CI), Pain: cemiplimab minus chemotherapy; for Overall difference in LS mean change from baseline (95% CI), GHS/QoL / Overall difference in LS mean change from baseline (95% CI), Physical functioning / Overall difference in LS mean change from baseline (95% CI), Role functioning: positive numbers favor cemiplimab; for Overall difference in LS mean change from baseline (95% CI), Appetite loss / Overall difference in LS mean change from baseline (95% CI), Fatigue / Overall difference in LS mean change from baseline (95% CI), Pain: EORTC QLQ-C30 symptom scale, negative numbers favor cemiplimab
Description: QOL is measured by the EORTC QLQ-C30.
Quality of Life Questionnaires: Patient-reported outcomes are measured using the validated patient self-administered EORTC QLQ-C30 questionnaire. Patients are asked to complete these questionnaires prior to any study procedures being performed at a given study visit (during the on-study/treatment and follow-up periods).
QoL: Longitudinal change from baseline at each PRO assessment in the GHS/QoL and PF scales was analyzed using a mixed model with repeated measures (MMRM). Higher scores on these scales indicate better health status/function. […] The model generated least squares (LS) mean estimates, standard errors, 95% CIs and p-values (where applicable) for mean changes from baseline on each PRO assessment.
At baseline and Day 1 of each treatment cycle (up to 16), patients were administered the EORTC QLQ-030. Mixed-effects repeated measures models estimated least squares (LS) mean change from baseline across all scales. Responder analyses determined the proportions with clinically meaningful (using 10-point threshold) improvement or deterioration, or stability on QLQ-030.

[1] = EORTC QLQ-C30, Overall population
[2] = SCC patients, Overall Across Cycles
[3] = overall population, Overall Across Cycles

With cemiplimab the “Overall difference in LS mean change from baseline (95% CI), GHS/QoL” value (EORTC QLQ-C30, AC (post-hoc)) was 2.0 (−5.4; 9.3), the “Overall difference in LS mean change from baseline (95% CI), Physical functioning” value (EORTC QLQ-C30, AC (post-hoc)) was 2.6 (−4.3; 9.5) and the “Overall difference in LS mean change from baseline (95% CI), Role functioning” value (EORTC QLQ-C30, AC (post-hoc)) was 8.3 (−0.0; 16.6). The “Overall difference in LS mean change from baseline (95% CI), GHS/QoL” value [1] was 7.8 (3.3; 12.3)*, the “Overall difference in LS mean change from baseline (95% CI), Physical functioning” value [1] was 8.3 (4.3; 12.2)* and the “Overall difference in LS mean change from baseline (95% CI), Role functioning” value [1] was 13.1 (8.3; 17.9)^‡. The “Overall difference in LS mean change from baseline (95% CI), GHS/QoL” value (EORTC QLQ-C30, SCC) was 8.5 (3.8; 13.2)^†, the “Overall difference in LS mean change from baseline (95% CI), Physical functioning” value (EORTC QLQ-C30, SCC) was 8.4 (4.1; 12.6)^† and the “Overall difference in LS mean change from baseline (95% CI), Role functioning” value (EORTC QLQ-C30, SCC) was 11.4 (6.3; 16.6)^‡. For the same substance, the “Overall difference in LS mean change from baseline (95% CI), Appetite loss” value (AC (post-hoc)) was −5.9 (−19.8; 2.4), the “Overall difference in LS mean change from baseline (95% CI), Fatigue” value (AC (post-hoc)) was −5.9 (−13.9; 2.2) and the “Overall difference in LS mean change from baseline (95% CI), Pain” value (AC (post-hoc)) was −7.6 (−17.1; 1.9). The “Overall difference in LS mean change from baseline (95% CI), Appetite loss” value (Overall population) was −11.3 (−16.6; −6.0)^‡, the “Overall difference in LS mean change from baseline (95% CI), Fatigue” value (Overall population) was −9.1 (−14.1; −4.0)^‡ and the “Overall difference in LS mean change from baseline (95% CI), Pain” value (Overall population) was −10.2 (−16.2; −4.3)^‡. For the same substance, the “Overall difference in LS mean change from baseline (95% CI), Appetite loss” value (SCC) was −10.9 (−16.6; −5.2)^‡, the “Overall difference in LS mean change from baseline (95% CI), Fatigue” value (SCC) was −8.6 (−14.0; −3.3)^‡ and the “Overall difference in LS mean change from baseline (95% CI), Pain” value (SCC) was −10.4 (−16.9; −3.8)^‡. The “Difference in LS mean change, Cemiplimab versus Chemotherapy, GHS/QoL” value (SCC patients, C2D1) was 4.14, the “Difference in LS mean change, Cemiplimab versus Chemotherapy, Physical Functioning” value (SCC patients, C2D1) was 4.09 and the “LS mean change from baseline, EORTC QLQ-C30 GHS/QoL” value (SCC patients, C2D1) was −2.02. For the same substance, the “LS mean change from baseline, EORTC QLQ-C30 Physical Functioning” value (SCC patients, C2D1) was −1.82, the “Difference in LS mean change, Cemiplimab versus Chemotherapy, GHS/QoL” value (SCC patients, C3D1) was 9.41 and the “Difference in LS mean change, Cemiplimab versus Chemotherapy, Physical Functioning” value (SCC patients, C3D1) was 7.33. For the same substance, the “LS mean change from baseline, EORTC QLQ-C30 GHS/QoL” value (SCC patients, C3D1) was 1.18, the “LS mean change from baseline, EORTC QLQ-C30 Physical Functioning” value (SCC patients, C3D1) was 2.10 and the “Difference in LS mean change, Cemiplimab versus Chemotherapy, GHS/QoL” value (SCC patients, C4D1) was 12.36. The “Difference in LS mean change, Cemiplimab versus Chemotherapy, Physical Functioning” value (SCC patients, C4D1) was 10.41, the “LS mean change from baseline, EORTC QLQ-C30 GHS/QoL” value (SCC patients, C4D1) was 5.15 and the “LS mean change from baseline, EORTC QLQ-C30 Physical Functioning” value (SCC patients, C4D1) was 5.21. The “Difference in LS mean change, Cemiplimab versus Chemotherapy, GHS/QoL” value (SCC patients, C5D1) was 6.94, the “Difference in LS mean change, Cemiplimab versus Chemotherapy, Physical Functioning” value (SCC patients, C5D1) was 6.86 and the “LS mean change from baseline, EORTC QLQ-C30 GHS/QoL” value (SCC patients, C5D1) was 0.85. For the same substance, the “LS mean change from baseline, EORTC QLQ-C30 Physical Functioning” value (SCC patients, C5D1) was −0.17, the “Difference in LS mean change, Cemiplimab versus Chemotherapy, GHS/QoL” value (SCC patients, C6D1) was 6.83 and the “Difference in LS mean change, Cemiplimab versus Chemotherapy, Physical Functioning” value (SCC patients, C6D1) was 7.11. The “LS mean change from baseline, EORTC QLQ-C30 GHS/QoL” value (SCC patients, C6D1) was −0.17, the “LS mean change from baseline, EORTC QLQ-C30 Physical Functioning” value (SCC patients, C6D1) was 0.82 and the “Difference in LS mean change, Cemiplimab versus Chemotherapy, GHS/QoL” value (SCC patients, C7D1) was 11.25. For the same substance, the “Difference in LS mean change, Cemiplimab versus Chemotherapy, Physical Functioning” value (SCC patients, C7D1) was 14.30, the “LS mean change from baseline, EORTC QLQ-C30 GHS/QoL” value (SCC patients, C7D1) was 2.09 and the “LS mean change from baseline, EORTC QLQ-C30 Physical Functioning” value (SCC patients, C7D1) was −0.07. The “Difference in LS mean change, Cemiplimab versus Chemotherapy, GHS/QoL” value [2] was 8.49, the “Difference in LS mean change, Cemiplimab versus Chemotherapy, Physical Functioning” value [2] was 8.35 and the “LS mean change from baseline, EORTC QLQ-C30 GHS/QoL” value [2] was 1.18. The “LS mean change from baseline, EORTC QLQ-C30 Physical Functioning” value [2] was 1.01, the “Difference in LS mean change, Cemiplimab versus Chemotherapy, GHS/QoL” value (overall population, C2D1) was 3.25 and the “LS mean change from baseline, EORTC QLQ-C30 GHS/QoL” value (overall population, C2D1) was −1.03. The “LS mean change from baseline, EORTC QLQ-C30 Physical Functioning” value (overall population, C2D1) was −2.41, the “Difference in LS mean change, Cemiplimab versus Chemotherapy, GHS/QoL” value (overall population, C3D1) was 7.41 and the “Difference in LS mean change, Cemiplimab versus Chemotherapy, Physical Functioning” value (overall population, C3D1) was 6.02. For the same substance, the “LS mean change from baseline, EORTC QLQ-C30 GHS/QoL” value (overall population, C3D1) was 1.19, the “LS mean change from baseline, EORTC QLQ-C30 Physical Functioning” value (overall population, C3D1) was 0.49 and the “Difference in LS mean change, Cemiplimab versus Chemotherapy, GHS/QoL” value (overall population, C4D1) was 10.55. The “Difference in LS mean change, Cemiplimab versus Chemotherapy, Physical Functioning” value (overall population, C4D1) was 932, the “LS mean change from baseline, EORTC QLQ-C30 GHS/QoL” value (overall population, C4D1) was 4.47 and the “LS mean change from baseline, EORTC QLQ-C30 Physical Functioning” value (overall population, C4D1) was 2.38. For the same substance, the “Difference in LS mean change, Cemiplimab versus Chemotherapy, GHS/QoL” value (overall population, C5D1) was 5.66, the “Difference in LS mean change, Cemiplimab versus Chemotherapy, Physical Functioning” value (overall population, C5D1) was 6.74 and the “LS mean change from baseline, EORTC QLQ-C30 GHS/QoL” value (overall population, C5D1) was 0.48. For the same substance, the “LS mean change from baseline, EORTC QLQ-C30 Physical Functioning” value (overall population, C5D1) was −1.27, the “Difference in LS mean change, Cemiplimab versus Chemotherapy, GHS/QoL” value (overall population, C6D1) was 5.44 and the “Difference in LS mean change, Cemiplimab versus Chemotherapy, Physical Functioning” value (overall population, C6D1) was 6.93. For the same substance, the “LS mean change from baseline, EORTC QLQ-C30 GHS/QoL” value (overall population, C6D1) was −0.29, the “LS mean change from baseline, EORTC QLQ-C30 Physical Functioning” value (overall population, C6D1) was −1.34 and the “Difference in LS mean change, Cemiplimab versus Chemotherapy, GHS/QoL” value (overall population, C7D1) was 8.30. The “Difference in LS mean change, Cemiplimab versus Chemotherapy, Physical Functioning” value (overall population, C7D1) was 11.66, the “LS mean change from baseline, EORTC QLQ-C30 GHS/QoL” value (overall population, C7D1) was 3.32 and the “LS mean change from baseline, EORTC QLQ-C30 Physical Functioning” value (overall population, C7D1) was −0.10. The “Difference in LS mean change, Cemiplimab versus Chemotherapy, GHS/QoL” value (overall population, C8D1) was 14.08, the “Difference in LS mean change, Cemiplimab versus Chemotherapy, Physical Functioning” value (overall population, C8D1) was 12.96 and the “LS mean change from baseline, EORTC QLQ-C30 GHS/QoL” value (overall population, C8D1) was −1.09. For the same substance, the “LS mean change from baseline, EORTC QLQ-C30 Physical Functioning” value (overall population, C8D1) was −0.89, the “course of GHS/QoL from baseline” value (overall population, EORTC QLQ-C30) was “improved or maintained GHS/QoL from baseline; also recorded: generally improve or maintain their baseline GHS/QOL” and the “Difference in LS mean change, Cemiplimab versus Chemotherapy, GHS/QoL” value [3] was 7.81. The “Difference in LS mean change, Cemiplimab versus Chemotherapy, Physical Functioning” value [3] was 8.26, the “LS mean change from baseline, EORTC QLQ-C30 GHS/QoL” value [3] was 1.01 and the “LS mean change from baseline, EORTC QLQ-C30 Physical Functioning” value [3] was −0.45.
